Measurements taken from US9199946B2, “Pyrimidinone carboxamide inhibitors of endothelial lipase” (BRISTOL-MYERS SQUIBB COMPANY, priority 2012, dated 2015).
pIC50: −log10 of the molar value. Read-outs that look alike come from different tables or passages of the source.

Target: T1, Endothelial lipase (EL) (Homo sapiens, UniProt Q9Y5X9)
T1 construct: HT-1080 cells, which were transformed by RAGE technology (Athersys) to overexpress endogenous EL; endogenous in cells; conditioned medium used as the enzyme source
T1 sequence (Q9Y5X9 21-500): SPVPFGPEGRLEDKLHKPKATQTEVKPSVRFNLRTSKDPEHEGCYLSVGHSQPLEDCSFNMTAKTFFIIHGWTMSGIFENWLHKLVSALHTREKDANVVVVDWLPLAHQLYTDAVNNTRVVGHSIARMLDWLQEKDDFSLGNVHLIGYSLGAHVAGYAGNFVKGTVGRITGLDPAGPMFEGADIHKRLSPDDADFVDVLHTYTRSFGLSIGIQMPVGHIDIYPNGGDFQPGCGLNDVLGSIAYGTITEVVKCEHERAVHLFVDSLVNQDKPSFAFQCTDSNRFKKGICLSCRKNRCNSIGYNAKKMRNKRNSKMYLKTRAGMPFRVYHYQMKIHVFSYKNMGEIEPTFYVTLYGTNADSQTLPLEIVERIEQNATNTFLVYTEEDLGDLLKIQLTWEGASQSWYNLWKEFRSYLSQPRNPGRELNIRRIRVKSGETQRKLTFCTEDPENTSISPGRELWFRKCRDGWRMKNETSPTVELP
Experiment: Endothelial lipase (EL) enzymatic assay with fluorescent substrate A10070 in DMPG vesicles
Type: biochemical
Procedure: Endothelial lipase activity was measured using a fluorescent substrate, A10070, (Invitrogen, CA) doped into an artificial vesicle containing DMPG (Avanti Polar Lipids) as the excipient. Vesicles were prepared by combining 285 μL of 1 mM DMPG in a 1:1 mixture of MeOH and CHCl3 with 15 μL of 1 mM A10070 in a 1:1 mixture of MeOH and CHCl3. The mixture was dried under nitrogen and resuspended in 150 μL of 50 mM HEPES pH 8.0 buffer containing 100 mM NaCl and 0.2 mM EDTA. The sample was allowed to sit at rt for 15 min and then was sonicated 3×4 mins on ice with a Branson Sonicator using duty cycle 1. This preparation provides vesicles with a mole fraction of 0.05 for the FRET substrate.
The enzymatic assay was measured using white, opaque 96-well half area plates. Each well contained 60 μL of assay buffer (50 mM HEPES pH 8.0, 50 mM NaCl and 1 mM CaCl2) and 2 ul of a DMSO solution containing compound of interest. Conditioned media obtained from HT-1080 cells, which were transformed by RAGE technology (Athersys) to overexpress endogenous EL, was added and the reaction was allowed to incubate for 20 min at 37° C. with gentle agitation. The reaction was started by the addition of 20 μL of a 1:4 dilution of vesicles. The final total reaction volume was 100 μL. The reaction rates were measured on a Gemini plate reader with an excitation wavelength of 488 nm and an emission of 530 nm. Readings were taken every 20 seconds for 10 min with agitation between each reading. The slope of the linear portion of the readout was used to calculate the rate of the reaction.

[1] = conditioned media from HT-1080 cells overexpressing endogenous EL, 20 min preincubation at 37° C., read-out: EL IC50
[2] = range observed in the EL assay, read-out: EL IC50 values

SMILES	pIC50 [1]	pIC50 [2]
Nc1c(C(=O)N[C@@H]2CCCc3c(-c4ccccc4)cccc32)[nH]c(=O)[nH]c1=O [Example 112, (R)-5-amino-2,6-dioxo-N-(5-phenyl-1,2,3,4-tetrahydronaphthalen-1-yl)-1,2,3,6-tetrahydropyrimidine-4-carboxamide]		≥ 5.00
Nc1c(C(=O)N[C@H]2CC[C@@H](NC(=O)c3cccc(OCc4ccccc4)c3)CC2)[nH]c(=O)[nH]c1=O [Example 122, 5-amino-N-(cis-4-(3-(benzyloxy)benzamido)cyclohexyl)-2,6-dioxo-1,2,3,6-tetrahydropyrimidine-4-carboxamide]		≥ 5.00
COc1ccc(-c2ccc([C@@H]3CC[C@H](NC(=O)c4[nH]c(=O)[nH]c(=O)c4N)C3)cc2)cc1OC [Example 161, 5-amino-N-((1S,3R)-3-(3′,4′-dimethoxybiphenyl-4-yl)cyclopentyl)-2,6-dioxo-1,2,3,6-tetrahydropyrimidine-4-carboxamide]		≥ 5.00
Nc1c(C(=O)N[C@H]2CC[C@@H](NC(=O)Nc3ccccc3)CC2)[nH]c(=O)[nH]c1=O [Example 118, 5-amino-2,6-dioxo-N-(cis-4-(3-phenylureido)cyclohexyl)-1,2,3,6-tetrahydropyrimidine-4-carboxamide]		≥ 5.00
Nc1c(C(=O)N[C@H]2CC[C@@H](C(=O)N[C@@H]3CCCc4c(OCc5ccccc5)cccc43)C2)[nH]c(=O)[nH]c1=O [Example 136, 5-amino-N-((1S,3R)-3-((R)-5-(benzyloxy)-1,2,3,4-tetrahydronaphthalen-1-ylcarbamoyl)cyclopentyl)-2,6-dioxo-1,2,3,6-tetrahydropyrimidine-4-carboxamide]	7.72	≥ 5.00
Nc1c(C(=O)N[C@H]2CCCc3cc(OCC(F)(F)F)ccc32)[nH]c(=O)[nH]c1=O [Example 34, (S)-5-amino-2,6-dioxo-N-(6-(2,2,2-trifluoroethoxy)-1,2,3,4-tetrahydronaphthalen-1-yl)-1,2,3,6-tetrahydropyrimidine-4-carboxamide]		≥ 5.00
Nc1c(C(=O)N[C@@H]2CCCc3ccc(C(F)(F)F)cc32)[nH]c(=O)[nH]c1=O [Example 53, (R)-5-amino-2,6-dioxo-N-(7-(trifluoromethyl)-1,2,3,4-tetrahydronaphthalen-1-yl)-1,2,3,6-tetrahydropyrimidine-4-carboxamide]	7.74	≥ 5.00
Nc1c(C(=O)N[C@@H]2CCCc3c(NC(=O)c4ccccc4)cccc32)[nH]c(=O)[nH]c1=O [Example 124, (R)-5-amino-N-(5-benzamido-1,2,3,4-tetrahydronaphthalen-1-yl)-2,6-dioxo-1,2,3,6-tetrahydropyrimidine-4-carboxamide]		≥ 5.00
COc1ccc([C@@H]2CC[C@@H](NC(=O)c3[nH]c(=O)[nH]c(=O)c3N)C2)cn1 [Example 80, 5-amino-N-((1R,3R)-3-(6-methoxypyridin-3-yl)cyclopentyl)-2,6-dioxo-1,2,3,6-tetrahydropyrimidine-4-carboxamide]		≥ 5.00
Nc1c(C(=O)N[C@@H]2CCCc3c(NCc4ccccc4)cccc32)[nH]c(=O)[nH]c1=O [Example 123, (R)-5-amino-N-(5-(benzylamino)-1,2,3,4-tetrahydronaphthalen-1-yl)-2,6-dioxo-1,2,3,6-tetrahydropyrimidine-4-carboxamide]		≥ 5.00
COc1ccc2c(c1OC)CCC(NC(=O)c1[nH]c(=O)[nH]c(=O)c1N)C2 (stereo not shown) [Example 108, 5-amino-N-(5,6-dimethoxy-1,2,3,4-tetrahydronaphthalen-2-yl)-2,6-dioxo-1,2,3,6-tetrahydropyrimidine-4-carboxamide]		≥ 5.00
CC(C)Oc1ccc(C2CCC(NC(=O)c3[nH]c(=O)[nH]c(=O)c3N)C2)cc1 (stereo not shown) [Example 142, 5-amino-N-(3-(4-isopropoxyphenyl)cyclopentyl)-2,6-dioxo-1,2,3,6-tetrahydropyrimidine-4 carboxamide]	7.41	≥ 5.00
Cc1ccc(S(=O)(=O)Nc2ccc(C3CCCC(NC(=O)c4[nH]c(=O)[nH]c(=O)c4N)C3)cc2)cc1 (stereo not shown) [Example 128, 5-amino-N-(3-(4-(4-methylphenylsulfonamido)phenyl)cyclohexyl)-2,6-dioxo-1,2,3,6-tetrahydropyrimidine-4-carboxamide]	7.89	≥ 5.00

The next lines start with the values.

pIC50 [1]	pIC50 [2]	SMILES
6.54	≥ 5.00	O=C(N[C@H]1CC[C@@H](c2ccccc2)CC1)c1[nH]c(=O)[nH]c(=O)c1NCCN1CCOCC1 [Example 211, 5-(2-morpholinoethylamino)-2,6-dioxo-N-(cis-4-phenylcyclohexyl)-1,2,3,6-tetrahydropyrimidine-4-carboxamide]
	≥ 5.00	O=C(N[C@H]1CC[C@@H](C(=O)N[C@@H]2CCCc3c(OCc4ccccc4)cccc32)C1)c1[nH]c(=O)[nH]c(=O)c1O [Example 263, N-((1S,3R)-3-((R)-5-(benzyloxy)-1,2,3,4-tetrahydronaphthalen-1-ylcarbamoyl)cyclopentyl)-5-hydroxy-2,6-dioxo-1,2,3,6-tetrahydropyrimidine-4-carboxamide]
5.50	≥ 5.00	O=C(Nc1ccccc1)N[C@H]1CC[C@@H](NC(=O)c2[nH]c(=O)[nH]c(=O)c2O)CC1 [Example 280, 5-hydroxy-2,6-dioxo-N-(cis-4-(3-phenylureido)cyclohexyl)-1,2,3,6-tetrahydropyrimidine-4-carboxamide]
	≥ 5.00	O=C(N[C@H]1CC[C@@H](c2ccccc2)CC1)c1[nH]c(=O)n(CCC(F)(F)F)c(=O)c1O [Example 252, 5-hydroxy-2,6-dioxo-N-((1s,4s)-4-phenylcyclohexyl)-1-(3,3,3-trifluoropropyl)-1,2,3,6-tetrahydropyrimidine-4-carboxamide]
6.06	≥ 5.00	O=C(N[C@H]1CC[C@@H](NC(=O)c2[nH]c(=O)[nH]c(=O)c2O)CC1)OCc1ccccc1 [Example 281, benzyl cis-4-(5-hydroxy-2,6-dioxo-1,2,3,6-tetrahydropyrimidine-4-carboxamido)cyclohexylcarbamate]
5.28	≥ 5.00	O=C(N[C@H]1CC[C@@H](c2ccccc2)CC1)c1[nH]c(=O)[nH]c(=O)c1NCc1ccccn1 [Example 225, 2,6-dioxo-N-(cis-4-phenylcyclohexyl)-5-(pyridin-2-ylmethylamino)-1,2,3,6-tetrahydropyrimidine-4-carboxamide]
	≥ 5.00	CC(=O)Nc1ccccc1-c1ccc([C@@H]2CC[C@H](NC(=O)c3[nH]c(=O)[nH]c(=O)c3N)C2)cc1 [Example 162, N-((1S,3R)-3-(2′-acetamidobiphenyl-4-yl)cyclopentyl)-5-amino-2,6-dioxo-1,2,3,6-tetrahydropyrimidine-4-carboxamide]
	≥ 5.00	O=C(N[C@H]1CC[C@@H](c2ccccc2)CC1)c1[nH]c(=O)[nH]c(=O)c1NCc1ccccc1C(F)(F)F [Example 215, 2,6-dioxo-N-(cis-4-phenylcyclohexyl)-5-(2-(trifluoromethyl)benzylamino)-1,2,3,6-tetrahydropyrimidine-4-carboxamide]
	≥ 5.00	O=C(N[C@H]1CC[C@@H](c2ccccc2)CC1)c1[nH]c(=O)[nH]c(=O)c1NCCc1ccccc1Cl [Example 221, 5-(2-chlorophenethylamino)-2,6-dioxo-N-(cis-4-phenylcyclohexyl)-1,2,3,6-tetrahydropyrimidine-4-carboxamide]
	≥ 5.00	Nc1c(C(=O)N[C@@H]2CCN(c3ccccc3)C2)[nH]c(=O)[nH]c1=O [Example 191, (R)-5-amino-2,6-dioxo-N-(1-phenylpyrrolidin-3-yl)-1,2,3,6-tetrahydropyrimidine-4-carboxamide]
	≥ 5.00	CC(CO)Nc1c(C(=O)N[C@H]2CC[C@@H](c3ccccc3)CC2)[nH]c(=O)[nH]c1=O (stereo partly drawn) [Example 235, 5-(1-hydroxypropan-2-ylamino)-2,6-dioxo-N-(cis-4-phenylcyclohexyl)-1,2,3,6-tetrahydropyrimidine-4-carboxamide]
5.96	≥ 5.00	Nc1c(C(=O)N[C@H]2CC[C@@H](c3ccc(-c4ccnn4C4CCCCO4)cc3)C2)[nH]c(=O)[nH]c1=O (stereo partly drawn) [Example 176, 5-amino-2,6-dioxo-N-((1S,3R)-3-(4-(1-(tetrahydro-2H-pyran-2-yl)-1H-pyrazol-5-yl)phenyl)cyclopentyl)-1,2,3,6-tetrahydropyrimidine-4-carboxamide]
